Laboratory results reported in patent US20190093170A1, “USE OF TRANSLATIONAL PROFILING TO IDENTIFY TARGET MOLECULES FOR THERAPEUTIC TREATMENT” (THE REGENTS OF THE UNIVERSITY OF CALIFORNIA, priority 2013, published 2019).

How the values were obtained:
[1] = tested on: PC3 human prostate cancer cells; assay: Ribosome profiling: translational efficiency (ribosome footprint vs RNA-seq read density); type: cell-based; conditions: for PP242 TrlEff: 3-hour treatment with PP242 (2.5 μM) in PC3 cells;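 on all read-outs here: Per-gene footprint-to-mRNA density ratio averaged per codon over the coding sequence, scaled so the median gene equals 1.0 after excluding regulated genes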
Procedure: Given the critical role for mTOR in prostate cancer, PC3 human prostate cancer cells, in which mTOR is constitutively hyperactivated, were used to delineate translationally controlled gene expression networks upon complete or partial mTOR inhibition. Ribosome profiling was optimized to assess quantitatively ribosome occupancy genome-wide in cancer cells.
Cells were subsequently treated with cycloheximide (100 μg ml^−1; Sigma) and detergent lysis was performed in the dish. The lysate was treated with DNase and clarified, and a sample was taken for RNA-seq analysis. Lysates were subjected to ribosome footprinting by nuclease treatment. Ribosome-protected fragments were purified, and deep sequencing libraries were generated from these fragments, as well as from poly(A) mRNA purified from non-nuclease-treated lysates. These libraries were analyzed by sequencing on an Illumina GAII.
Ribosome footprint and RNA-seq sequencing reads were aligned against a library of transcripts from the UCSC Known Genes database GRCh37/hg19. The first 25 nucleotides of each read were aligned using Bowtie and this initial alignment was then extended to encompass the full fragment-derived portion of the sequencing read while excluding the linker sequence. Read density profiles were then constructed for the canonical transcript of each gene, using only reads with 0 or 1 total mismatches between the read sequence and the reference sequence, comprised of the transcript fragment followed by the linker sequence. Footprint reads were assigned to an A site nucleotide at position +15 to +17 of the alignment, based on the total fragment length; mRNA reads were assigned to the first nucleotide of the alignment. The average read density per codon was then computed for the coding sequence of each transcript, excluding the first 15 and last 5 codons, which can display atypical ribosome accumulation.
Average read density was used as a measure of mRNA abundance (RNA-seq reads) and of protein synthesis (ribosome profiling reads). For most analyses, genes were filtered to require at least 256 reads in the relevant RNA-seq samples. Translational efficiency was computed as the ratio of ribosome footprint read density to RNA-seq read density, scaled to normalize the translational efficiency of the median gene to 1.0 after excluding regulated genes (log 2 fold-change+1.5 after normalizing for the all-gene median). Changes in protein synthesis, mRNA abundance and translational efficiency were similarly computed as the ratio of read densities between different samples, normalized to give the median gene a ratio of 1.0. This normalization corrects for differences in the absolute number of sequencing reads obtained for different libraries.

[2] = tested on: YB1, MTA1, vimentin, and CD44; assay: Western blot and qPCR of invasion genes in PC3 cells; type: cell-based, human; conditions: starting at 6 hr of treatment
Procedure: Western blot analysis was performed as previously described (Hsieh et al., Cancer Cell 17:249-261 (2010)) with antibodies specific to phospho-AKT^S473 (Cell Signaling), AKT (Cell Signaling), phospho-p70S6K^T389 (Cell Signaling), phospho-rpS6^S240/244 (Cell Signaling), rpS6 (Cell Signaling), phospho-4EBP1^T37/46 (Cell Signaling), 4EBP1 (Cell Signaling), 4EBP2 (Cell Signaling), YB1 (Cell Signaling), CD44 (Cell Signaling), LEF1 (Cell Signaling), PTEN (Cell Signaling), eEF2 (Cell Signaling), GAPDH (Cell Signaling), vimentin (BD Biosciences), eIF4E (BD Biosciences), Flag (Sigma), β-actin (Sigma), MTA1 (Santa Cruz Biotechnology), Twist (Santa Cruz Biotechnology), rpL28 (Santa Cruz Biotechnology), HA (Covance) and rictor (Bethyl Laboratory).
RNA was isolated using the manufacturer's protocol for RNA extraction with TRIzol Reagent (Invitrogen) using the Pure Link RNA mini kit (Invitrogen). RNA was DNase-treated with Pure Link Dnase (Invitrogen). DNase-treated RNA was transcribed to cDNA with SuperScript III First-Strand Synthesis System for RT-PCR (Invitrogen), and 1 μl of cDNA was used to run a SYBR green detection qPCR assay (SYBR Green Supermix and MyiQ2, Biorad). Primers were used at 200 nM.

`CC(C)n1nc(-c2cc3cc(O)ccc3[nH]2)c2c(N)ncnc21` [PP242] was tested, and the “PP242 TrlEff” value ([1]; gene ACD) was −1.02, the TrlEff ([1]; gene ACTG1) was −1.40 and the TrlEff ([1]; gene AGRN) was −1.29. It also gave a TrlEff ([1]; gene ALKBH7) of −1.27, a TrlEff ([1]; gene AP2A1) of −1.32 and a TrlEff ([1]; gene ARD1A) of −1.05. For the same molecule, the TrlEff ([1]; gene ATP5G2) was −1.01, the “PP242 TrlEff” value ([1]; gene C17orf28) was −0.20 and the TrlEff ([1]; gene C21orf66) was −1.03. For the same molecule, the “PP242 TrlEff” value ([1]; gene CCNA1) was 0.66, the TrlEff ([1]; gene CCNI) was −1.33 and the TrlEff ([1]; gene CD44) was −1.29. It also gave a TrlEff ([1]; gene CIRBP) of −1.08, a TrlEff ([1]; gene CLPTM1) of −1.13 and a TrlEff ([1]; gene COL6A2) of −1.29. For the same molecule, the TrlEff ([1]; gene CRTAP) was −2.50, the “PP242 TrlEff” value ([1]; gene DDX51) was −0.51 and the “PP242 TrlEff” value ([1]; gene DGCR2) was 0.02. For the same molecule, the TrlEff ([1]; gene ECSIT) was −1.06, the “PP242 TrlEff” value ([1]; gene EEF1A1) was −3.53 and the TrlEff ([1]; gene EEF1A2) was −1.94. For the same molecule, the TrlEff ([1]; gene EEF1D) was −2.37, the TrlEff ([1]; gene EEF1G) was −2.26 and the TrlEff ([1]; gene EEF2) was −3.60. It also gave a TrlEff ([1]; gene EIF3H) of −1.54, a TrlEff ([1]; gene EIF3L) of −1.47 and a TrlEff ([1]; gene EIF4B) of −2.27. For the same molecule, the TrlEff ([1]; gene EVPL) was −0.79, the TrlEff ([1]; gene FAM83H) was −1.11 and the TrlEff ([1]; gene FAM128B) was −1.47. The TrlEff ([1]; gene FASN) was −1.42, the TrlEff ([1]; gene GLTSCR2) was −2.12 and the TrlEff ([1]; gene GNB2L1) was −2.35. The “PP242 TrlEff” value ([1]; gene GTPBP3) was −0.83, the TrlEff ([1]; gene HNRNPA1) was −2.12 and the TrlEff ([1]; gene HSPA8) was −2.25. It also gave a TrlEff ([1]; gene IMPDH2) of −1.33, a TrlEff ([1]; gene LAMA5) of −0.94 and a TrlEff ([1]; gene LMF2) of −1.36. The “PP242 TrlEff” value ([1]; gene MAPK6) was −0.29, the “PP242 TrlEff” value ([1]; gene MAPKAPK2) was 0.92 and the TrlEff ([1]; gene MTA1) was −1.09. For the same molecule, the TrlEff ([1]; gene NCLN) was −0.76, the “PP242 TrlEff” value ([1]; gene NFATC21P) was 0.35 and the “PP242 TrlEff” value ([1]; gene NR2F1) was −0.09. It also gave a TrlEff ([1]; gene PABPC1) of −2.09, a TrlEff ([1]; gene PABPC4) of −1.98 and a TrlEff ([1]; gene PACS1) of −1.09. The TrlEff ([1]; gene PFDN5) was −1.38, the TrlEff ([1]; gene PGLS) was −1.11 and the TrlEff ([1]; gene PGM1) was −1.35. The TrlEff ([1]; gene PNKP) was −0.79, the “PP242 TrlEff” value ([1]; gene PRKD3) was 0.68 and the TrlEff ([1]; gene PTGES2) was −0.65. For the same molecule, the TrlEff ([1]; gene RABGGTB) was −1.46, the “PP242 TrlEff” value ([1]; gene RBPJ) was −0.03 and the TrlEff ([1]; gene RPL3) was −2.44. The TrlEff ([1]; gene RPL4) was −1.50, the TrlEff ([1]; gene RPL7) was −2.02 and the TrlEff ([1]; gene RPL7A) was −2.30. For the same molecule, the TrlEff ([1]; gene RPL9) was −1.59, the TrlEff ([1]; gene RPL10) was −2.46 and the TrlEff ([1]; gene RPL10A) was −2.16. It also gave a TrlEff ([1]; gene RPL11) of −2.31, a TrlEff ([1]; gene RPL12) of −2.95 and a TrlEff ([1]; gene RPL13) of −1.56. For the same molecule, the TrlEff ([1]; gene RPL13A) was −3.10, the TrlEff ([1]; gene RPL15) was −1.20 and the TrlEff ([1]; gene RPL18A) was −2.63. It also gave a TrlEff ([1]; gene RPL19) of −1.35, a TrlEff ([1]; gene RPL21) of −2.45 and a TrlEff ([1]; gene RPL22) of −1.64. It also gave a TrlEff ([1]; gene RPL24) of −1.41, a TrlEff ([1]; gene RPL26) of −2.00 and a TrlEff ([1]; gene RPL27) of −1.23. The TrlEff ([1]; gene RPL27A) was −2.53, the TrlEff ([1]; gene RPL28) was −2.54 and the “PP242 TrlEff” value ([1]; gene RPL28) was −3.48. It also gave a TrlEff ([1]; gene RPL31) of −2.10, a TrlEff ([1]; gene RPL32) of −2.33 and a TrlEff ([1]; gene RPL34) of −2.63. The TrlEff ([1]; gene RPL36A) was −1.98, the TrlEff ([1]; gene RPL37A) was −2.38 and the TrlEff ([1]; gene RPL39) was −2.41. The “PP242 TrlEff” value ([1]; gene RPL39) was −2.53, the TrlEff ([1]; gene RPL41) was −1.28 and the TrlEff ([1]; gene RPLP0) was −1.61. It also gave a TrlEff ([1]; gene RPLP1) of −2.06, a TrlEff ([1]; gene RPLP2) of −2.10 and a TrlEff ([1]; gene RPS2) of −2.25. The TrlEff ([1]; gene RPS3) was −2.16, the TrlEff ([1]; gene RPS3A) was −2.17 and the TrlEff ([1]; gene RPS4X) was −2.06. The TrlEff ([1]; gene RPS5) was −2.25, the TrlEff ([1]; gene RPS7) was −1151 and the TrlEff ([1]; gene RPS9) was −2.27. For the same molecule, the TrlEff ([1]; gene RPS12) was −3.00, the TrlEff ([1]; gene RPS13) was −1.54 and the TrlEff ([1]; gene RPS14) was −1.50. It also gave a TrlEff ([1]; gene RPS15) of −1.19, a TrlEff ([1]; gene RPS15A) of −2.31 and a TrlEff ([1]; gene RPS19) of −2.34. The TrlEff ([1]; gene RPS20) was −2.46, the “PP242 TrlEff” value ([1]; gene RPS20) was −2.78 and the TrlEff ([1]; gene RPS21) was −2.09. For the same molecule, the TrlEff ([1]; gene RPS25) was −2.13, the TrlEff ([1]; gene RPS27) was −2.71 and the “PP242 TrlEff” value ([1]; gene RPS27) was −3.35. The TrlEff ([1]; gene RPS27A) was −1.61, the TrlEff ([1]; gene RPS28) was −2.67 and the “PP242 TrlEff” value ([1]; gene SDCCAG10) was 0.23. The TrlEff ([1]; gene SLC19A1) was −1.07, the TrlEff ([1]; gene TKT) was −1.58 and the TrlEff ([1]; gene TPT1) was −1.94. For the same molecule, the TrlEff ([1]; gene TSC2) was −1.09, the TrlEff ([1]; gene UBA52) was −1.62 and the “PP242 TrlEff” value ([1]; gene UBTD2) was 0.27. The “PP242 TrlEff” value ([1]; gene UCHL5) was 0.40, the “PP242 TrlEff” value ([1]; gene VHL) was 0.52 and the TrlEff ([1]; gene VIM) was −2.38. The TrlEff ([1]; gene YB1) was −2.30 and the “expression of YB1, MTA1, vimentin, and CD44 at the protein but not transcript level” value [2] was “selective decrease”.
